Experimental data: paper PMC12019328, “Discovery of an ApoE4-targeted small-molecule SirT1 enhancer for the treatment of Alzheimer’s disease” (Scientific Reports, 2025)

Columns and labels:
SirT1 mRNA = assay: Hippocampal SirT1 mRNA in ApoE4-TR:5xFAD mice; type: in vivo; conditions: 20 mg/Kg BID, 56 days, vs vehicle
Description: The active (-) enantiomer, DDL-218, underwent efficacy testing in ApoE4-TR:5xFAD mice[27] that were 6-7.5 months old at the start of treatment. ApoE4-TR:5xFAD male and female mice received either 20 mg/Kg DDL-218 BID (~ 8- to10-hour interval; total daily dose of 40 mkd) on weekdays and a single 40 mg/Kg dose on weekends (n = 12) or vehicle-only (n = 11); 8 C57BL/6 mice received vehicle-only as behavioral controls. Dosing was by the oral route and by oral feeding using a pipette as previously described, not gavage, as it is safer for repeated oral dosing than gavage. The dose of 20 mg/kg BID (40 mkd) was selected based on findings from PK analysis and was the highest feasible in the formulation used for oral feeding (compound is first solubilized in water, then mixed strawberry syrup diluted in water, for a final vehicle that is 25% syrup and 75% water). […]
(§1) Total RNA was isolated from cells or brain tissue (Qiagen RNEasy kit). Total RNA (0.5–1.0 µg) mRNA was then converted to cDNA (SuperScript™ III First-Strand Synthesis SuperMix kit; Thermo Fisher), and gene mRNA levels were measured using a gene-specific qRT-PCR Taqman assays (Thermo Fisher). Gene mRNA levels were normalized to GAPDH mRNA levels measured either in the same cDNA sample or in the same qPCR reaction using multiplexing of gene-of-interest/VIC and GAPDH/FAM, normalized by the delta-delta-Ct method.

NFYb mRNA in Kelly cells = assay: NFYb mRNA in Kelly neuroblastoma cells; type: cell-based, human; conditions: 5 µM, 24 h, vs DMSO
Description: Human neuroblastoma ‘Kelly’ cells (genotype APOE3/APOE4) were plated in 96-well plates at 50K cells per well and were grown overnight in RPMI 1640 supplemented with 2 mM Glutamine, 10% FBS and 1% Pen-Strep. Cells were treated with 5 µM DDL-214, -218, or -219; or DMSO vehicle (n = 8 per compound). Twenty-four hours later, medium was removed, cells washed and lysed as described above for N2a-E4 cells.
as §1

[1] = Observable adverse effects in 56-day oral treatment of AD model mice; type: in vivo; conditions: 56-day oral treatment of ApoE4-expressing AD model mice
Description: The active (-) enantiomer, DDL-218, underwent efficacy testing in ApoE4-TR:5xFAD mice[27] that were 6-7.5 months old at the start of treatment. ApoE4-TR:5xFAD male and female mice received either 20 mg/Kg DDL-218 BID (~ 8- to10-hour interval; total daily dose of 40 mkd) on weekdays and a single 40 mg/Kg dose on weekends (n = 12) or vehicle-only (n = 11); 8 C57BL/6 mice received vehicle-only as behavioral controls. Dosing was by the oral route and by oral feeding using a pipette as previously described, not gavage, as it is safer for repeated oral dosing than gavage. The dose of 20 mg/kg BID (40 mkd) was selected based on findings from PK analysis and was the highest feasible in the formulation used for oral feeding (compound is first solubilized in water, then mixed strawberry syrup diluted in water, for a final vehicle that is 25% syrup and 75% water). The final concentration of DDL-218 was chosen to deliver 20 mg/Kg in a volume of 10–20 µL (adjusted to the weight of each mouse). Mice were treated for 56 days (8 weeks); in week 7, mice underwent Barnes maze testing[29] as described below.

hippocampal proteins = assay: Global proteomics on hippocampal brain tissue; type: in vivo, mice
Description: Hippocampal brain tissue from both DDL-218- and vehicle-treated mice underwent global proteomics analysis, as described in Supplementary Methods.
Liquid chromatography tandem mass spectrometry (LC-MS/MS) was used for proteomic analysis.
Proteins from hippocampal tissue from mice treated with either DDL-218 or vehicle were diluted in T-PER buffer and concentrations adjusted after BCA protein quantitation assay (Thermo Fisher Scientific). The protein disulfide bonds were reduced and alkylated by treatment with 10 mM tris (2-carboxyethyl) phosphine (TCEP) and 40 mM chloroacetamide (CAA) for 10 min at 95°C. SP3 beads were added to each sample concentrated at 25 μL of beads for 100 μg of protein. Samples were washed 3 times with 2x the sample volume of 80% ethanol in the DynaMag™-2 Magnet and protein solutions diluted 5-fold with 50 mM TEAB.
Trypsin was added in a 1:100 (mass trypsin:mass total protein) ratio to target proteins, and the samples were incubated overnight on a rocker at 37°C.
Samples were centrifuged at 16,000 x g for 5 minutes at room temperature. A colorimetric peptide assay (Thermo Fischer Scientific) was run on a sample of each supernatant. The results were used to aliquot […] of protein from each sample, which were then lyophilized in the SpeedVac. Samples were reconstituted in 100mM TEAB, individually labelled using TMT Isobaric Label Reagent Set (Thermo Fischer Scientific), and incubated at room temperature for one hour. Each sample was then incubated at room temperature for 15 minutes with 5uL of 5% hydroxylamine and lyophilized in the SpeedVac. Subsequently, samples were reconstituted in 2% acetonitrile + 0.1% TFA, and a 5uL aliquot of each sample was pooled together. The pooled sample was desalted with C18 Stagetips made from Empore C18 solid phase extraction disks and lyophilized in the SpeedVac. It was then reconstituted in 2% acetonitrile + 0.1% Formic Acid (FA) and transferred to an autosampler vial. LC/MS2 was performed using a nanoLC and orbitrap mass analyzer using a C18 column and DDA/MS2 mass spectrometer method.
Samples were injected (5 μL) onto a reverse phase nanobore HPLC column (AcuTech Scientific, C18, 1.8 μm particle size, 360 μm x 20 cm, 150 μm ID), equilibrated in solvent E and eluted (500 nL/min) with an increasing concentration of solvent F (acetonitrile/water/FA, 98/2/0.1, v/v/v: min/% F; 0/0, 5/3, 18/7, […]
(Framingham, MA)). The effluent from the column was directed to a nanospray ionization source connected to a hybrid quadrupole-Orbitrap mass spectrometer (Q Exactive Plus, Thermo Fisher Scientific) operating in the positive ion data-dependent mode alternating between a full scan (m/z 350-1700, automated gain control (AGC) target 3 x 106, 50 ms maximum injection time, FWHM resolution 70,000 at m/z 200) and up to 10 MS/MS scans (quadrupole isolation of charge states ≥ 2, isolation width 0.7 Th) with optimized fragmentation conditions (normalized collision energy of 32, dynamic exclusion of 30 s, AGC target 1 x 105, 100 ms maximum injection time, FWHM resolution 35,000 at m/z 200). The raw data from both analyses was processed using Proteome Discoverer™ (version 2.4). Tryptic peptides containing amino acid sequences unique to individual proteins were used for identification/quantification of each protein.
Raw data was submitted to a database search using Proteome Discoverer 3.1 [ThermoFischer Scientific]. Using the results for TMT labeling efficiency, sample volumes were adjusted to achieve an equal ratio of protein across TMT labeled samples. Remaining samples were pooled in equal ratio, and the pooled sample was desalted and lyophilized in the SpeedVac overnight.
The pooled sample was fractionated using Pierce High pH Reversed-Phase Peptide Fractionation Kit (Thermo Fischer Scientific) according to the manufacturer’s protocol. The fractions were dried in the SpeedVac and reconstituted in 0.1% formic acid. Samples were transferred to autosampler vials and LC/MS2 was performed as previously described. […]

CC(N)C(=O)OC(C)(C)Cc1ccncc1 (stereo not shown) [DDL-218]
hippocampal SirT1 mRNA (SirT1 mRNA): significantly increased
NFYb mRNA (NFYb mRNA in Kelly cells): significantly increases NFYb mRNA
observable adverse effects [1]: not associated with any observable adverse effects
Abundance Ratio (DDL218/Veh) (hippocampal proteins; Cep170, hippocampal tissue): 1.36
Abundance Ratio (DDL218/Veh) (hippocampal proteins; Fxyd7, hippocampal tissue): 1.317
Abundance Ratio (DDL218/Veh) (hippocampal proteins; Luc7l2, hippocampal tissue): 0.793
Abundance Ratio (DDL218/Veh) (hippocampal proteins; Nubpl, hippocampal tissue): 1.374
Abundance Ratio (DDL218/Veh) (hippocampal proteins; Ptprn2, hippocampal tissue): 1.411
Abundance Ratio (DDL218/Veh) (hippocampal proteins; Rpl31, hippocampal tissue): 1.22
Abundance Ratio (DDL218/Veh) (hippocampal proteins; Rps20, hippocampal tissue): 1.223
Abundance Ratio (DDL218/Veh) (hippocampal proteins; Scfd2, hippocampal tissue): 1.338
Abundance Ratio (DDL218/Veh) (hippocampal proteins; Shisa6, hippocampal tissue): 1.219
Abundance Ratio (DDL218/Veh) (hippocampal proteins; Tbc1d17, hippocampal tissue): 1.25
